# Tested on: hyperpigmented spots
# Assay: In vivo testing for hyperpigmented spot reduction and melanin evenness (9 week split face study)
# Design: species or system humans
# Details: for Melanin Evenness versus Vehicle / NC2 SAF (spot area fraction) versus Vehicle: vehicle+0.55% FSF or vehicle+5% Niacinamide, twice daily, split face
# Protocol: A 9 week in-vivo study was conducted using a round robin, vehicle controlled, split face design including a 1 week normalization period with 270 subjects. The 270 subjects were screened according to inclusion/exclusion criteria which included the following:
# Has hyperpigmented spots around cheek and/or periorbital area on both sides of the face.
# Has at least 1 hyperpigmented spot of 8-10 mm diameter, 4 spots of 4-6 mm or 10 spots of 2-3 mm diameter (sun spots, freckles, or melasma spots) or equivalent spot area in the cheek area on each side of their face.
# Is willing to refrain from sun exposure by using supplied UV lotion and physical UV blocks, such as a hat, to avoid facial sunburn, tanning or wind burn.
# Has been diagnosed as having atopy, eczema, psoriasis, or other chronic skin diseases.
# Has obvious signs of facial skin disease (e.g., more than 5 pimples, areas of red scaling skin, superficial thin blood vessels, etc.).
# Has significant areas of discoloration or scarring on the face.
# Has more than 3 prominent moles (<3 mm) on the face.
# Two hundred and seventy subjects were recruited for the study. […] Each subject received two coded test formulations for twice daily application to each half of the face. Images of the facial treatment sites were captured at baseline (week 0), and after 4 and 8 weeks of treatment and analyzed for changes to skin color and spot size and color. The product formulations included a vehicle control, the vehicle+0.55% FSF, and the vehicle+5% vitamin B3 compound (Niacinamide).
# Noncontact spectrophotometric intracutaneous analysis (SiaScopy, Astron Clinica, UK) was used to collect and analyze the subject images. The method used a digital camera (e.g., Fuji S2 digital SLR) as a […] and a flash lighting source (e.g., Sigma Super flash light source) to recover facial chromophore information. A cross polarized filter was placed in front of the camera and the lighting source to eliminate specular reflection.
# Chromophore mapping of the concentration and distribution of eumelanin (melanin) and oxyhaemoglobin produces grayscale concentration maps of each of these chromophores. Image analysis software, such as Optimas 6.5, can be used to select a region of interest in each chromophore map from which mean grayscale values and spot area fraction are calculated. Spot area fraction refers to total area occupied by melanin spots as a percentage of the whole region of interest. A description of one type of chromophore mapping can be found in EP 1,810,614 and “The Distribution of Melanin in Skin Determined In Vivo”, British Journal of Dermatology, 2007, pp 620-628.
# Table 15 summarizes the image analysis data, wherein SAF is the mean Spot Area Fraction and A SAF is the mean change in Spot Area Fraction from baseline (week 0).
smiles,measurement,setting,value
NC(=O)c1cccnc1 [Niacinamide],Melanin Evenness versus Vehicle,4 weeks,ns (ns = not significant (p > 0.3))
same,NC2 SAF (spot area fraction) versus Vehicle,4 weeks,ns (ns = not significant (p > 0.3))
same,Melanin Evenness versus Vehicle,8 weeks,Sig
same,NC2 SAF (spot area fraction) versus Vehicle,8 weeks,Sig
same,reduction of hyperpigmented spots (in words),"after 8 weeks, vehicle+0.55% FSF, vehicle+5% vitamin B3, control",best performer
